# From ChEMBL document CHEMBL4311942, “Design of Trp-Rich Dodecapeptides with Broad-Spectrum Antimicrobial Potency and Membrane-Disruptive Mechanism” (J Med Chem, 2019)
# Calls of active or inactive are those of the source. No cut-off for these calls is given here. Where a SMILES comes first, the peptide text is derived from it.
# What was measured:
# Escherichia coli [1] = experiment: Induction of cytoplasmic membrane depolarization in Escherichia coli UB1005 by DiSC3-5 dye based fluorescence method; type: organism-based
# Staphylococcus aureus [2] = experiment: Induction of cell membrane disruption in Staphylococcus aureus ATCC 29213 assessed as apperance of broken and empty cell envelope at 2 times MIC after 60 mins by field emission scanning electron microscopy; type: organism-based
# Erythrocyte = experiment: Haemolytic activity in human erythrocytes assessed as lowest concentration causing 5% hemolysis after 1 hr; type: ADME, cell-based
# Staphylococcus aureus [3] = experiment: Induction of cell membrane disruption in Staphylococcus aureus ATCC 29213 assessed as propidium iodide-positive cells at 2 times MIC after 30 mins by flow cytometric analysis (reference value: 0.3%)
# [4] = Drug localization in Escherichia coli ATCC 25922 at 1 to 2 times MIC incubated for 1 hr using FITC-labelled peptides by propidium iodide-staining based regular fluorescent microscopy; type: ADME
# Staphylococcus aureus [5] = experiment: Induction of cell membrane disruption in Staphylococcus aureus ATCC 29213 assessed as collapsed membrane at 1 to 2 times MIC after 60 mins by transmission electron microscopy; type: organism-based
# Escherichia coli [6] = experiment: Bactericidal activity against Escherichia coli ATCC 25922 at 2 times MIC after 120 mins by time kill assay relative to control; type: functional
# Escherichia coli [7] = experiment: Antibacterial activity against Escherichia coli ATCC 25922 in presence of FeCl3 by broth microdilution method; type: functional
# Lipopolysaccharide (LPS) = experiment: Displacement of BODIPY-TR-cadaverine from Escherichia coli O111:B4 LPS by spectrofluorophotometric method
# [8] = Cytotoxicity against mouse RAW264.7 cells assessed as cell survival at <= 32 uM after 24 hrs by MTT assay relative to control; type: cell-based; conditions: RAW264.7 cells, up to 32 µM, read-out: Activity
# Pseudomonas aeruginosa [9] = experiment: Antibacterial activity against Pseudomonas aeruginosa PAO1 at sub-MIC treated over 35 serial passages by resistant development assay; type: functional, organism-based
# Escherichia coli [10] = experiment: Bactericidal activity against Escherichia coli ATCC 25922 assessed as reduction in bacterial growth at 2 times MIC after 60 mins by time kill assay relative to control; type: functional
# Staphylococcus aureus [11] = experiment: Antibacterial activity against Staphylococcus aureus ATCC 29213 in presence of 12.5% serum by broth microdilution method; type: functional
# Staphylococcus aureus [12] = experiment: Antibacterial activity against Staphylococcus aureus ATCC 29213 in presence of CaCl2 by broth microdilution method; type: functional
# Escherichia coli [13] = experiment: Antibacterial activity against Escherichia coli 20411 clinical isolate incubated for 18 to 24 hrs by broth microdilution method; type: functional
# Escherichia coli [14] = experiment: Antibacterial activity against Escherichia coli ATCC 25922 in presence of KCl by broth microdilution method; type: functional
# Staphylococcus aureus [15] = experiment: Antibacterial activity against Staphylococcus aureus ATCC 29213 incubated for 18 to 24 hrs using FITC-labelled peptide by broth microdilution method; type: functional, organism-based
# Staphylococcus aureus [16] = experiment: Antibacterial activity against Staphylococcus aureus ATCC 29213 in presence of FeCl3 by broth microdilution method; type: functional
# Escherichia coli [17] = experiment: Induction of outer membrane permeabilization in Escherichia coli UB1005 assessed as increase in NPN uptake by spectrofluorophotometric assay; type: organism-based
# Escherichia coli [18] = experiment: Antibacterial activity against Escherichia coli ATCC 25922 in presence of CaCl2 by broth microdilution method; type: functional
# Escherichia coli [19] = experiment: Antibacterial activity against Escherichia coli ATCC 25922 in presence of ZnCl2 by broth microdilution method; type: functional
# [20] = Drug localization in Staphylococcus aureus ATCC 29213 at 2 times MIC incubated for 1 hr using FITC-labelled peptides by propidium iodide-staining based super resolution fluorescent microscopy; type: ADME
# Staphylococcus aureus [21] = experiment: Induction of cell membrane disruption in Staphylococcus aureus ATCC 29213 assessed as leakage of cellular content at 1 to 2 times MIC after 60 mins by transmission electron microscopy; type: organism-based
# Escherichia coli [22] = experiment: Antibacterial activity against Escherichia coli ATCC 25922 incubated for 18 to 24 hrs using FITC-labelled peptide by broth microdilution method; type: functional, organism-based
# Escherichia coli [23] = experiment: Induction of cell membrane disruption in Escherichia coli ATCC 25922 assessed as appearance of membrane atrophy at 1 times MIC after 60 mins by field emission scanning electron microscopy; type: organism-based
# Staphylococcus aureus [24] = experiment: Antibacterial activity against Staphylococcus aureus ATCC 29213 in presence of ZnCl2 by broth microdilution method; type: functional
# Escherichia coli [25] = experiment: Antibacterial activity against Escherichia coli ATCC 25922 incubated for 18 to 24 hrs by broth microdilution method; type: functional
# Pseudomonas aeruginosa [26] = experiment: Antibacterial activity against Pseudomonas aeruginosa 25349 clinical isolate incubated for 18 to 24 hrs by broth microdilution method; type: functional
# Staphylococcus aureus [27] = experiment: Induction of cell membrane disruption in Staphylococcus aureus ATCC 29213 after 30 mins by propidium iodide-staining based flow cytometric analysis; type: organism-based
# Escherichia coli [28] = experiment: Antibacterial activity against Escherichia coli ATCC 25922 incubated for 2 hrs in presence of sodium phosphate buffer at pH 12 by broth microdilution method; type: functional; conditions: ATCC 25922, 2 h
# Escherichia coli [29] = experiment: Induction of cell membrane disruption in Escherichia coli ATCC 25922 assessed as propidium iodide-positive cells at 2 times MIC after 30 mins by flow cytometric analysis (reference value: 0.8%)
# Staphylococcus aureus [30] = experiment: Antibacterial activity against Staphylococcus aureus ATCC 29213 in presence of KCl by broth microdilution method; type: functional
# Escherichia coli [31] = experiment: Antibacterial activity against Escherichia coli ATCC 25922 in presence of MgCl2 by broth microdilution method; type: functional
# [32] = tested on: Staphylococcus epidermidis; experiment: Antibacterial activity against Staphylococcus epidermidis ATCC 12228 incubated for 18 to 24 hrs by broth microdilution method; type: functional
# Escherichia coli [33] = experiment: Antibacterial activity against Escherichia coli ATCC 25922 incubated for 2 hrs in presence of sodium phosphate buffer at pH 4 by broth microdilution method; type: functional; conditions: ATCC 25922, 2 h
# Escherichia coli [34] = experiment: Inhibition of swimming motility of Escherichia coli ATCC 25922 after 16 hrs; type: functional, organism-based
# Escherichia coli [35] = experiment: Induction of cell membrane disruption in Escherichia coli ATCC 25922 assessed as seperation of cytoplasmic membrane from outer membrane at 2 times MIC after 60 mins by transmission electron microscopy; type: organism-based
# Staphylococcus aureus [36] = experiment: Antibacterial activity against Staphylococcus aureus 11011 incubated for 18 to 24 hrs by broth microdilution method; type: functional
# Staphylococcus aureus [37] = experiment: Antibacterial activity against Staphylococcus aureus ATCC 29213 incubated for 2 hrs in presence of sodium phosphate buffer at pH 10 by broth microdilution method; type: functional; conditions: ATCC 29213, 2 h
smiles,measurement,setting,value
CC(C)C[C@H](NC(=O)[C@H](CCCNC(=N)N)NC(=O)[C@H](Cc1c[nH]c2ccccc12)NC(=O)[C@H](CCCNC(=N)N)NC(=O)[C@@H](NC(=O)[C@H](CCCCN)NC(=O)[C@H](Cc1c[nH]c2ccccc12)NC(=O)[C@H](CCCNC(=N)N)NC(=O)[C@H](CC(C)C)NC(=O)[C@H](CCCNC(=N)N)NC(=O)[C@@H](N)Cc1c[nH]c2ccccc12)[C@@H](C)O)C(=O)N[C@@H](CCCCN)C(N)=O (H-WRLRWKTRWRLK-NH2),Activity,Escherichia coli [1],Dose-dependent effect
same,Activity,Staphylococcus aureus [2],Active
same,MHC,Erythrocyte,> 128 µM
same,Activity,Staphylococcus aureus [3],97.7%
same,Drug uptake,[4],Active
same,Activity,Staphylococcus aureus [5],Active
same,Activity,Escherichia coli [6],100%
same,MIC,Escherichia coli [7],4 µM
same,Activity,Lipopolysaccharide (LPS),Dose-dependent effect
same,viability at 24 h,[8],≥ 70%
same,Activity,Pseudomonas aeruginosa [9],Active
same,log(activity),Escherichia coli [10],1
same,MIC,Staphylococcus aureus [11],4 µM
same,MIC,Staphylococcus aureus [12],4 µM
same,MIC,Escherichia coli [13],2 µM
same,MIC,Escherichia coli [14],2 µM
same,Activity,Staphylococcus aureus [15],Active
same,MIC,Staphylococcus aureus [16],4 µM
same,Activity,Escherichia coli [17],Dose-dependent effect
same,MIC,Escherichia coli [18],2 µM
same,MIC,Escherichia coli [19],4 µM
same,Drug uptake,[20],Active
same,Activity,Staphylococcus aureus [21],Active
same,Activity,Escherichia coli [22],Active
same,Activity,Escherichia coli [23],Active
same,MIC,Staphylococcus aureus [24],4 µM
same,MIC,Escherichia coli [25],4 µM
same,MIC,Pseudomonas aeruginosa [26],8 µM
same,Activity,Staphylococcus aureus [27],Dose-dependent effect
same,MIC,Escherichia coli [28],2 µM
same,Activity,Escherichia coli [29],91.7%
same,MIC,Staphylococcus aureus [30],2 µM
same,MIC,Escherichia coli [31],2 µM
same,MIC,[32],4 µM
same,MIC,Escherichia coli [33],2 µM
same,inhibition,Escherichia coli [34],Dose-dependent effect
same,Activity,Escherichia coli [35],Active
same,MIC,Staphylococcus aureus [36],2 µM
same,MIC,Staphylococcus aureus [37],4 µM
